These results are taken from ChEMBL document CHEMBL3714729, “Heterocyclic compounds for the inhibition of pask” (2012).

Experiment [1] has as its target T1, PAS domain-containing serine/threonine-protein kinase (Homo sapiens, UniProt Q96RG2). Briefly: Inhibition of purified full-length human PASK expressed in insect cells using MBP protein substrate incubated for 10 mins before ATP addition and measured after 1 hr by kinase-Glo luminescent kinase assay. A general note: In Kinase-Glo more light means more ATP remaining.

For experiment [2], the target named is T1, PAS domain-containing serine/threonine-protein kinase. Briefly: Inhibition of purified human PASK kinase domain expressed in insect cells using MBP protein substrate incubated for 10 mins before ATP addition and measured after 1 hr by kinase-Glo luminescent kinase assay.

T1 sequence (Q96RG2 whole entry, the tested form may be a part): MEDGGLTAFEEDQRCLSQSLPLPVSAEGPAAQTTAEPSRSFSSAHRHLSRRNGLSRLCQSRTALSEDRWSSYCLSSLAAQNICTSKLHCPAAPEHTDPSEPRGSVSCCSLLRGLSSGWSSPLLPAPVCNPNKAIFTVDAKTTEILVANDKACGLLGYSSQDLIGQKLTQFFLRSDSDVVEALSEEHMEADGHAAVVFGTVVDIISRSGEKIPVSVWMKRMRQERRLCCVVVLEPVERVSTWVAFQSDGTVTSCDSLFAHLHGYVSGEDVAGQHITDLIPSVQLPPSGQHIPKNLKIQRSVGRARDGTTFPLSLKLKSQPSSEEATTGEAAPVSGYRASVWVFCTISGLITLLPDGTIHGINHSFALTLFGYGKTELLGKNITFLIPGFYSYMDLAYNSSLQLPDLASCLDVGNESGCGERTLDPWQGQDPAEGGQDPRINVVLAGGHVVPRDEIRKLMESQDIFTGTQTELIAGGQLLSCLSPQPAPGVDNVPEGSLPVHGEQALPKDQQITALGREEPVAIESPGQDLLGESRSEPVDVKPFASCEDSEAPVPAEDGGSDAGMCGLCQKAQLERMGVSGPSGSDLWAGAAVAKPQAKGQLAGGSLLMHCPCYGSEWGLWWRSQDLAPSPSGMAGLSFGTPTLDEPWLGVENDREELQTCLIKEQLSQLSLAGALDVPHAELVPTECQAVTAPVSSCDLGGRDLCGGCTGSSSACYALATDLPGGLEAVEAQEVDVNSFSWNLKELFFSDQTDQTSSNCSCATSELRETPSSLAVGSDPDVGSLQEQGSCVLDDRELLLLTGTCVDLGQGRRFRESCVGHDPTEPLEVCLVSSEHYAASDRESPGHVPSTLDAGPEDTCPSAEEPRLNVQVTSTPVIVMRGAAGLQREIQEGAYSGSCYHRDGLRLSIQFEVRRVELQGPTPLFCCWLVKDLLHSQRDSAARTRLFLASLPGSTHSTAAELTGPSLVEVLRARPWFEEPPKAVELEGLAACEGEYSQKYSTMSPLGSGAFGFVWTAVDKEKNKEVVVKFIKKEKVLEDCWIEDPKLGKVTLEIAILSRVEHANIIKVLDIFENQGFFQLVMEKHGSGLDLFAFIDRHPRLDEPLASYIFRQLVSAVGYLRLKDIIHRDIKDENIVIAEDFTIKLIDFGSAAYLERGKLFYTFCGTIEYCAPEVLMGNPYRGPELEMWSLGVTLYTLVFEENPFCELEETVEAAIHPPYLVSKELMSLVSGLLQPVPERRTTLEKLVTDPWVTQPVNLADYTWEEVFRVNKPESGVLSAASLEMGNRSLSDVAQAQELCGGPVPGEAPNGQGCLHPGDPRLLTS

Consider `CCc1c(C)[nH]c2c(-c3ccc(Cl)cc3)c(C)nn2c1=O`, for which the IC50 in experiment [1] and in experiment [2] was ≥ 10 µM in each case.
As for `O=c1c2c([nH]c3c(-c4ccc(Cl)cc4)c(Cc4ccccc4)nn13)CCC2`, the 50% inhibitory concentration (IC50) in experiment [1] and in experiment [2] was ≥ 10 µM throughout.
As for `Cc1nn2c(=O)c3c([nH]c2c1-c1ccc(Cl)cc1)CCC3`, the IC50 in experiment [1] and in experiment [2] was ≥ 10 µM each time.
Turning to `O=c1cc(Cc2ccccc2)[nH]c2c(-c3ccccc3)c(-c3ccccc3)nn12`, the IC50 in experiment [1] and in experiment [2] was ≥ 10 µM in each case.
Regarding `COCc1cc(=O)n2nc(Cc3ccccc3)c(-c3ccc(Cl)cc3)c2[nH]1`, the IC50 in experiment [1] and in experiment [2] was ≥ 10 µM throughout.
Turning to `CCc1c(C)[nH]c2c(-c3ccccc3)c(Cc3ccc(OC)cc3)nn2c1=O`, the IC50 in experiment [1] and in experiment [2] was ≥ 10 µM each time.
On to `Cc1ccc(-c2cc(=O)n3nc(C)c(-c4ccccc4)c3[nH]2)cc1`, for which the IC50 in experiment [1] and in experiment [2] was ≥ 10 µM in each case.
Regarding `COc1ccc(-c2nn3c(=O)cc(C(C)C)[nH]c3c2-c2ccccc2)cc1`, the concentration for half-maximal inhibition (IC50) in experiment [1] and in experiment [2] was ≥ 10 µM in each case.
As to `COc1ccc(Cc2nn3c(=O)cc(C)[nH]c3c2-c2ccccc2)cc1`, the half-maximal inhibitory concentration (IC50) in experiment [1] and in experiment [2] was ≥ 10 µM in each case.
Turning to `Cc1cc(=O)n2nc(C)c(-c3ccc(Cl)cc3)c2[nH]1`, the IC50 in experiment [1] and in experiment [2] was ≥ 10 µM each time.
On to `COCc1cc(=O)n2nc(-c3ccc(Cl)cc3)cc2[nH]1`, for which the IC50 in experiment [1] and in experiment [2] was ≥ 10 µM in each case.
With `COc1ccc(-c2c(C)nn3c(=O)cc(Cc4ccccc4)[nH]c23)cc1`, the IC50 in experiment [1] and in experiment [2] was ≥ 10 µM each time.
Turning to `COc1ccc(-c2cc(=O)n3nc(C)c(-c4ccc(F)cc4)c3[nH]2)cc1`, the IC50 in experiment [1] and in experiment [2] was ≤ 10 µM in each case.
